Where a name gives a salt, the structure may show the parent alone.
Tests used:
[1] = tested on: A549-ACE2 infected with SARS-CoV-2; experiment: cell count relative to DMSO; higher = less toxic; settings: 24 h
[2] = tested on: Caco-2; experiment: cell viability relative to DMSO; higher = less toxic; settings: 72 h
[3] = tested on: Calu-3; experiment: as above; settings: 72 h
[4] = tested on: HepG2; experiment: as above; settings: 72 h
[5] = tested on: U2OS; experiment: as above; settings: 72 h
[6] = tested on: Vero E6; experiment: as above; settings: 72 h
[7] = tested on: A549-ACE2 infected with SARS-CoV-2; experiment: SARS-CoV-2 infection rate relative to DMSO; higher = more infection; settings: 24 h
[8] = tested on: A549-ACE2; experiment: drug-induced phospholipidosis relative to tamoxifen; higher = more phospholipidosis
[9] = tested on: A549-ACE2 infected with SARS-CoV-2; experiment: morphology score (similarity to uninfected cells); higher = more like uninfected cells; settings: 24 h
[10] = tested on: Caco-2; experiment: relative viability EC50 (midpoint between 100% and the lowest measured viability); higher = less toxic; settings: 72 h
[11] = tested on: Calu-3; experiment: as above; settings: 72 h
[12] = tested on: U2OS; experiment: as above; settings: 72 h
[13] = tested on: Vero E6; experiment: as above; settings: 72 h
[14] = tested on: Caco-2; experiment: drug sensitivity score (DSS) for viability; higher = more toxic; extreme values may be limits of the assay; settings: 72 h
[15] = tested on: Calu-3; experiment: as above; settings: 72 h
[16] = tested on: HepG2; experiment: as above; settings: 72 h
[17] = tested on: U2OS; experiment: as above; settings: 72 h
[18] = tested on: Vero E6; experiment: as above; settings: 72 h
[19] = tested on: HepG2; experiment: relative viability EC50 (midpoint between 100% and the lowest measured viability); higher = less toxic; settings: 72 h

Cc1ccc(CNc2ncnc3ccc(-c4ccc(CO)o4)cc23)o1 [ML167]
Settings	SARS-CoV-2 infection rate, [7] [%]	cell count, [1] [%]	cell viability, [2] [%]	cell viability, [3] [%]	cell viability, [4] [%]	cell viability, [5] [%]	cell viability, [6] [%]	morphology score, [9]
1 nM	–	–	106	102	94.8	102	104	–
10 nM	–	–	97.3	91.5	102	99.7	105	–
100 nM	–	–	110	98.1	99.2	106	95	–
0.3 µM	98	99	–	–	–	–	–	0.14
1000 nM	–	–	84.8	85	93.5	97.7	96.5	–
3 µM	92	111	–	–	–	–	–	0.35
10 µM	89	103	–	–	–	–	–	0.47
10000 nM	–	–	93.6	83	70.5	99.9	89.1	–
30 µM	72	99	–	–	–	–	–	0.52

drug-induced phospholipidosis [%], [8]
Settings	0.3 µM	0.833333 µM	3.33333 µM	6.66667 µM	10 µM	30 µM
24 h	2.53	0.81	-3.37	5.92	6.99	19.4
48 h	1.66	-0.31	-4.24	1.31	3.46	12.6
72 h	1.51	-4.06	-1.11	-0.124	2.4	14.2

Settings	drug sensitivity score	relative viability EC50 [µM]
[10]	–	> 10
[11]	–	> 10
[12]	–	> 10
[13]	–	> 10
[14]	1.2	–
[15]	1.2	–
[16]	2.3	–
[17]	0	–
[18]	0	–

Oc1cc(CNC(=S)/C=C/c2cc(O)c(O)c(Br)c2)cc(O)c1O [NT157]
Settings	SARS-CoV-2 infection rate, [7] [%]	cell count, [1] [%]	cell viability, [2] [%]	cell viability, [3] [%]	cell viability, [4] [%]	cell viability, [5] [%]	cell viability, [6] [%]	morphology score, [9]
1 nM	–	–	78.4	104	101	102	89.7	–
10 nM	–	–	102	101	101	98.2	102	–
0.1 µM	104	104	–	–	–	–	–	0.06
100 nM	–	–	99.4	109	95.6	99.8	92.8	–
0.3 µM	103	107	–	–	–	–	–	0.02
1 µM	105	106	–	–	–	–	–	-0.23
1000 nM	–	–	90.2	103	74.1	64.9	91	–
3 µM	101	93	–	–	–	–	–	-0.08
10000 nM	–	–	25.7	25.6	25.4	23.5	32.9	–

drug-induced phospholipidosis [%], [8]
Settings	0.3 µM	0.833333 µM	3.33333 µM	6.66667 µM	10 µM
24 h	2.74	-0.68	-0.71	22	29.2
48 h	2.03	-0.74	-5.67	–	–
72 h	3.76	-0.841	–	–	–

Settings	drug sensitivity score	relative viability EC50 [µM]
[10]	–	2.1
[11]	–	3.38
[12]	–	1.07
[13]	–	2.08
[14]	5.8	–
[15]	3.9	–
[16]	7.4	–
[17]	8.8	–
[18]	5.2	–
[19]	–	1.35

CCN1CCN(c2ccc(Nc3cc(N(C)C(=O)Nc4c(Cl)c(OC)cc(OC)c4Cl)ncn3)cc2)CC1 [NVP-BGJ398]
Settings	SARS-CoV-2 infection rate, [7] [%]	cell count, [1] [%]	cell viability, [2] [%]	cell viability, [3] [%]	cell viability, [4] [%]	cell viability, [5] [%]	cell viability, [6] [%]	morphology score, [9]
1 nM	–	–	109	116	111	104	91.7	–
10 nM	–	–	102	102	100	95.1	101	–
0.1 µM	99	91	–	–	–	–	–	0.05
100 nM	–	–	103	106	110	98.1	90.5	–
0.3 µM	100	91	–	–	–	–	–	-0.02
1 µM	110	98	–	–	–	–	–	0.02
1000 nM	–	–	95.4	99.4	106	89.5	90.8	–
3 µM	97	93	–	–	–	–	–	0.2
10000 nM	–	–	76.1	89.8	68	90.5	66.2	–

drug-induced phospholipidosis [%], [8]
Settings	0.3 µM	0.833333 µM	3.33333 µM	6.66667 µM	10 µM	30 µM
24 h	7.01	-3.2	0.41	0.28	8.33	40.8
48 h	5.03	-4.72	-2.05	0.17	2.69	25.9
72 h	3.12	-9.17	-6.95	-2.87	-1.22	27.1

Settings	drug sensitivity score	relative viability EC50 [µM]
[10]	–	> 10
[11]	–	> 10
[12]	–	> 10
[14]	1.5	–
[15]	0	–
[16]	1.1	–
[17]	0.1	–
[18]	2.4	–

C[C@H](N)Cc1c[nH]cn1 [alpha-methylhistamine-dihydrobromide-(S)-(+)]
Settings	SARS-CoV-2 infection rate, [7] [%]	cell count, [1] [%]	cell viability, [2] [%]	cell viability, [3] [%]	cell viability, [4] [%]	cell viability, [5] [%]	cell viability, [6] [%]	morphology score, [9]
1 nM	–	–	93.5	100	96.1	98.9	94.7	–
10 nM	–	–	87.9	105	103	96.9	96.5	–
100 nM	–	–	95.2	98.2	93	101	92.7	–
0.3 µM	96	109	–	–	–	–	–	0.22
1000 nM	–	–	98.5	100	100.2	101	96.5	–
3 µM	101	104	–	–	–	–	–	0.16
10 µM	90	104	–	–	–	–	–	0.28
10000 nM	–	–	96.6	101	94.8	99.2	105	–
30 µM	104	98	–	–	–	–	–	-0.09

drug-induced phospholipidosis [%], [8]
Settings	0.3 µM	0.833333 µM	3.33333 µM	6.66667 µM	10 µM	30 µM
24 h	1.4	-2.09	-0.4	-0.13	-1.06	2.88
48 h	2.76	-1.54	-1.15	-0.6	0.05	3.3
72 h	2.88	-1.77	-1.17	-0.807	0.33	4.01

Settings	drug sensitivity score	relative viability EC50 [µM]
[10]	–	> 10
[11]	–	> 10
[12]	–	> 10
[13]	–	> 10
[14]	0	–
[15]	0	–
[16]	0	–
[17]	0	–
[18]	0	–
[19]	–	> 10

Source: the supplement of paper PMC13380429
